From PubChem BioAssay (NCI)
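These data come from cells grown in 96-well plates and exposed to compound for 48 hours at five concentrations. GI50 marks 50% less growth. Definition used: TGI = concentration required for complete inhibition of growth.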

How the values were obtained:
Assay in all cases: NCI tumour cell line growth inhibition, 48 h
[1] = system: RPMI-8226 leukemia
[2] = system: NCI-H522 lung
[3] = system: MOLT-4 leukemia
[4] = system: M14 melanoma
[5] = system: OVCAR-8 ovarian
[6] = system: HCT-15 colon
[7] = system: A549 NSCLC
[8] = system: UACC-257 melanoma
[9] = system: UO-31 renal
[10] = system: ACHN renal

Row | SMILES | TGI [1] [µM] | TGI [2] [µM] | TGI [3] [µM] | TGI [4] [µM] | TGI [5] [µM] | TGI [6] [µM] | TGI [7] [µM] | TGI [8] [µM] | TGI [9] [µM] | TGI [10] [µM] | GI50 [1] [µM] | GI50 [2] [µM] | GI50 [3] [µM] | GI50 [4] [µM] | GI50 [5] [µM] | GI50 [6] [µM] | GI50 [7] [µM] | GI50 [8] [µM] | GI50 [9] [µM] | GI50 [10] [µM]
1 | CCCCCCCCCCCNC=O | 78.7 | 85.3 | 60.6 | > 100 | > 100 | 71.8 | > 100 | > 100 | > 100 | > 100 |  |  |  |  |  |  |  |  |  | 
2 | O=c1cc(-c2ccccc2)[nH]c2c1CCCC2 | > 100 | 6.71 | > 100 | 5.68 | > 100 | > 100 | > 100 | > 100 | > 100 | > 100 | 4.67 | 2 | 6.16 | 1.5 | 4.58 | 2.01 | 4.55 | 67 | 5.49 | 11.6
3 | NC(N)=NC(N)=Nc1ccc(C(=O)O)cc1 | > 100 | > 100 | > 100 | > 100 | > 100 | > 100 | > 100 | > 100 | > 100 | > 100 |  |  |  |  |  |  |  |  |  | 
4 | CC1CCCC(C#N)(NOC2=NCCN2)C1 (stereo not given) | > 100 | > 100 | > 100 | > 100 | > 100 | > 100 | > 100 | > 100 | > 100 | 46 | 38 | 29 | 10.7 | 84.1 | 41 | 44.6 | 63.4 | 97.5 | 31.8 | 18.9
5 | O=C(c1ccccc1)c1nnn(Cc2ccccc2Cn2nnc(C(=O)c3ccccc3)c2C(=O)c2ccccc2)c1C(=O)c1ccccc1 | > 100 | > 100 | > 100 | > 100 | > 100 | > 100 | > 100 | > 100 | > 100 | > 100 |  |  |  |  |  |  |  |  |  | 
6 | Nc1nc(Cl)nc2c1ncn2C1OC(CO)C(O)C1F (stereo not given) | > 100 | > 100 | > 100 | 0.0889 | > 100 | > 100 | > 100 | > 100 | > 26 | > 21.2 | 29.8 | > 68.2 |  | 0.024 | 0.0292 | 5.96 | 0.144 | 4.17 | 0.228 | 0.169
7 | N#CC1=C(N)NC(N2CCOCC2)=NC12Nc1ccccc1O2 (stereo not given) | 61.3 | 75 | > 100 | > 100 | > 100 | > 100 | > 100 | > 100 | > 100 | > 100 | 15.4 | 23 | 43 | 39.6 | 80.6 | 38.2 | 70 | 49.7 | 31.9 | 34
8 | CN1CCN(Cc2ccc(NC(=O)c3[nH]ncc3Nc3ncnc4[nH]ccc34)cc2)CC1 | 6.59 | 1.63 | 0.598 | 8.66 | 3.09 | 62.7 | 10.8 | 17.8 | 4.57 | 10 | 2.43 | 0.283 | 0.142 | 0.473 | 0.387 | 1.01 | 0.742 | 0.531 | 0.82 | 0.322
9 | FC(F)c1ncc(-c2ccc(C(F)(F)F)cc2)c(NC2CCCCCC2)n1 | > 10 | > 10 | > 10 | > 10 | > 10 | > 10 | > 10 | > 10 | > 10 | > 10 | > 10 | > 10 | > 10 | > 10 | > 10 | > 10 | > 10 | > 10 | > 10 | > 10
10 | CC(=O)c1c[nH]c2ccc(-c3ccnc(Nc4ccc(NC(=O)C5CCCC5)c(CN5CCOCC5)c4)n3)cc12 | 0.262 | 0.309 | 0.474 | 0.0955 | > 100 | 0.758 | 1.54 | 0.175 | 0.108 |  | 0.045 | 0.0439 | 0.0287 | 0.0274 | 0.0362 | 0.0558 | 0.0312 | 0.0349 | 0.0273 | 0.0305
11 | CN1CCN(CCCOc2ccc3nc(Nc4ccc(F)c(F)c4)ccc3c2)CC1 | 6.3 | 3.1 | 7.76 | 3.68 | 12.5 | 3.33 | 5.26 | 3.27 | 3.43 | 5.6 | 1.7 | 1.44 | 2.37 | 1.74 | 3.6 | 1.29 | 2.19 | 1.76 | 1.68 | 2.24
12 | CC(C)C1(NC(=O)C2CC3c4cccc5[nH]cc(c45)CC3N(C)C2)OC2(O)C3CCCN3C(=O)C(Cc3ccccc3)N2C1=O (stereo not given) | 39.8 | > 100 | 80.4 | > 100 | > 100 | > 100 | > 100 | > 100 | > 100 | > 100 |  |  |  |  |  |  |  |  |  | 
13 | Cc1ccccc1-n1c(=S)[nH]c2c(sc(=O)n2-c2ccccc2C)c1=O | > 100 | > 100 | > 100 | > 100 | > 100 | > 100 | > 100 | > 100 | > 100 | > 100 |  |  |  |  |  |  |  |  |  | 
14 | CC12CCC(=O)C(O1)C1C(=O)c3ccc4c(ccc5ccccc54)c3C(=O)C12 (stereo not given) | > 21.5 | 14.3 | 17.5 | 30.6 | 12.7 | 30.6 | 33.2 | 8.15 |  | 8.21 | 1.21 | 5.52 | 1.31 | 12.2 | 4.27 | 14.2 | 9.34 | 3.11 | 6.69 | 3.13
15 | Cc1nc(NS(=O)(=O)c2ccc(NCN3C(=O)c4ccccc4C3=O)cc2)oc1C | > 100 | > 100 | > 100 | > 100 | > 100 | > 100 | > 100 | > 100 | > 100 | > 100 | > 100 | > 100 | > 100 | > 100 | > 100 | > 100 | > 100 | > 100 | > 100 | > 100
16 | O=c1cc[nH]cc1-c1c[nH]ccc1=O | > 100 | > 100 | > 100 | > 100 | > 100 | > 100 | > 100 | > 100 | > 100 | > 100 |  |  |  |  |  |  |  |  |  | 
17 | COC(=O)CC1(O)C=CC(=O)C=C1 | 31.4 | 4.04 | 7.25 | 16.6 | 17.3 | 8.76 | 39.4 | 7.64 | 9.93 | 9.79 |  |  |  |  |  |  |  |  |  | 
18 | CCC(C)(O)c1cn(-c2ccc(Cl)cc2)nn1 (stereo not given) | > 100 | > 100 | > 100 | > 100 | > 100 | > 100 | > 100 | > 100 | > 100 | > 100 |  |  |  |  |  |  |  |  |  | 
19 | COc1cc(C2c3cc4c(cc3OC(O)C2C)OCO4)cc(OC)c1OC (stereo not given) | 2.07 | 0.713 | > 31.9 | 30.2 | > 20.5 | > 100 |  | > 100 | 40.7 | > 88.1 |  |  |  |  |  |  |  |  |  | 
20 | COC(=O)C(=O)C(C(=O)C(=O)Nc1ccccc1[N+](=O)[O-])c1nc2ccc([N+](=O)[O-])cc2[nH]c1=O (stereo not given) | > 100 | > 100 | > 100 | > 100 | > 100 | > 100 | > 100 | > 100 | > 100 | > 100 |  |  |  |  |  |  |  |  |  | 
21 | Brc1cc(C2OCCCO2)ccc1OCc1ccccc1 | > 100 | > 100 | > 100 | > 100 | > 100 | > 100 | > 100 | > 100 | > 100 | > 100 |  |  |  |  |  |  |  |  |  | 
22 | CS(=O)(=O)c1ccc(COP(N)(=O)N(CCCl)CCCl)cc1 (stereo not given) | > 100 | > 100 | > 100 | > 100 | > 100 | > 100 | > 100 | > 100 | > 100 | > 100 |  |  |  |  |  |  |  |  |  | 
23 | C=C(C)[C@@H]1CCc2c(O)c(O)c(=O)cc(C)c2C1 | > 100 | > 96.6 | > 25.2 | > 100 | 22.3 | > 100 | > 100 | > 100 | > 25.5 | 14.1 |  |  |  |  |  |  |  |  |  | 
24 | Cc1c(Nc2nccc3cc(CN4CC[C@@H](O)C4)cnc23)cccc1-c1cccc(-c2nc3cc(CN4CC[C@@H](C(=O)O)C4)cc(C#N)c3o2)c1C | 26.5 | 30.6 | 9.08 | 20.3 | 36.2 | 15.8 | 19.1 | 32.5 | > 100 | > 100 | 2.26 | 13.1 | 2.72 | 5.82 | 12.4 | 3.79 | 5.33 | 14.2 | 4.7 | 91.7
25 | O=C1OCC2=C1C(c1cccc(C(F)(F)F)c1)c1cc3c(cc1N2CCO)OCCO3 (stereo not given) | > 33.3 | 2.89 | > 33.3 | > 33.3 | > 33.3 | > 33.3 | > 33.3 | > 33.3 | > 33.3 | > 33.3 | 1.39 | 0.488 | 1.93 | 0.967 | 1.29 | 0.967 | 1.53 | > 33.3 | 1.95 | 2.83
26 | COc1ccc(Nc2ncnc3ccc(-c4cncc(NS(C)(=O)=O)c4)cc23)cc1Cl | 4.9 | 4.08 | 4 | 13.6 | 16.5 | 14.1 | 22.9 | 14 | 22.5 | > 100 | 2.11 | 1.18 | 1.5 | 2.81 | 3.62 | 3.6 | 5.18 | 2.82 | 3.04 | 4.92
27 | Cc1nn(C)c2ncnc(N/N=C/c3cccc(O)c3O)c12 | > 100 | > 48.2 | 28.7 | 1.72 | > 100 | > 100 | > 100 | > 37.1 | 2.19 | > 32.3 | 0.526 | 0.41 | 0.323 | 0.259 | 0.413 | 0.225 | 2.11 | 1.38 | 0.251 | 0.338
28 | CCC[CH2][Sn]([CH2]CCC)([CH2]CCC)/[C](=C/[Si](C)(C)c1ccccc1)c1ccc2c(c1)OCO2 | 77.8 | > 100 | 83.3 | 35.2 | 37.9 | 51.8 | 82.9 | 58.7 | 33.6 | 36.2 | 20.7 | 9.71 | 17.4 | 16.8 | 19.1 | 20.5 | 25.2 | 22.4 | 18.6 | 18.4
29 | COc1cc(S(=O)(=O)Nc2nc(-c3ccc(N4C(=O)C(C)SC4c4ccccc4O)cc3)cs2)ccc1Cl (stereo not given) | > 100 | > 100 | > 100 | > 100 | > 100 | > 100 | > 100 | > 100 | > 100 | > 100 | 17.4 | 53.7 | 34.4 | 38.6 | 42.2 | 37.3 | 39.7 | 32.8 | 37.2 | 42.7
30 | O=C1C(Cl)=C(Cl)C(=O)N1c1ccc(Cl)c(Cl)c1Cl | > 100 | 28.8 | > 100 | > 100 |  | > 100 | > 100 | > 100 | > 100 | > 100 |  |  |  |  |  |  |  |  |  | 
